Ends that are not written are not given here.
Key:
[1] = Ferric reducing antioxidant power (FRAP) assay; details: octapeptide 1 mg/mL, 10 µL; 30 min room temperature in the dark, absorbance 593 nm; mean ± SD, n = 3
Protocol: Since the antioxidant activity of a substance should be determined by different assays to study the radical scavenging mechanisms, the in vitro radical scavenging potential of the synthesized octapeptide was determined by three different common methods: 2,2-diphenyl-1-picrylhydrazyl (DPPH), 2,2′-azino-bis(3-ethylbenzothiazoline-6-sulfonate) (ABTS), and ferric reducing antioxidant power (FRAP) assays. […] The scavenging activities were calculated to be 0.121 ± 0.01 AsEAC and 0.173 ± 0.03 GaEAC for the DPPH and the ABTS assay, respectively.
For the DPPH scavenging activity, 10 µL of the octapeptide (1 mg/mL) was mixed with 200 µL DPPH solution (0.2 mM in methanol). […] The DPPH scavenging activity of the samples was expressed as the ascorbic acid equivalent antioxidant capacity (AsEAC). For the ABTS scavenging activity, ABTS radical solution (7 mM ABTS stock solution with 2.45 mM potassium persulfate) was diluted in 5 mM phosphate buffer saline (Gibco, Waltham, MA, USA), pH 7.4, to acquire an absorbance of 0.50 at 734 nm before performing the assay. […] The absorbance of the mixture was evaluated at 734 nm. The ABTS scavenging activity of the samples was expressed as the gallic equivalent antioxidant capacity (GaEAC). […] The absorbance was measured at 593 nm. The FRAP scavenging activity of the samples was expressed as FeSO4 molar equivalents.

[2] = tested on: 5,6-dihydroxyindole-2-carboxylic acid oxidase; Tyrp1; assay: Targeted proteomics in melanoma cells: Tyrp1; type: cell-based, Mus musculus; details: melanoma cells treated with octapeptide 50 μg/mL, 48 h, vs control; LC-MS/MS proteomics
Protocol: (§1) Although using the tyrosinase enzyme extracted from a mushroom for an in vitro tyrosinase inhibitory assay has been widely studied as a routine screening for tyrosinase inhibition, tyrosinase from the mushroom is located in the cytoplasm and is different from the mammalian tyrosinase that is found on the membrane of melanocytes. Therefore, cell-based assays are also usually utilized to identify the potential tyrosinase inhibitor. In our study, the effects of the octapeptide at 50 μg/mL in melanoma cells was investigated by a proteomics approach. […]
(§2) The Mus musculus skin melanoma cell line (B16-F10 ATCC, CRL-6475) and Cercopithecus aethiops kidney normal cell line (Vero ATCC, CCL-81) were used to explore the cell cytotoxicity. The effect of the octapeptide on the skin was evaluated in skin carcinoma cells. […] The cell viability was analyzed using the MTT (3-(4,5-dimethylthiazol-2-yl)-2,5-diphenyltetrazolium bromide) assay. […] After incubation for 24 h, the cell viability was measured by the optical absorbance at 630 and 570 nm using a microplate reader and transformed into the percentage of cell survival. […]
(§3) The mzXML data were evaluated by the relative comparison of the peak intensities of each peptide ion in all datasets by DeCyder MS Differential Analysis software version 2.0 (GE Healthcare Co., Boston, MA, USA). […]

[3] = tested on: L-dopachrome tautomerase; Dct; assay: Targeted proteomics in melanoma cells: Dct; type: cell-based, Mus musculus; details: melanoma cells treated with octapeptide 50 μg/mL, 48 h, vs control; LC-MS/MS proteomics
Protocol: as §1, §2, §3

[4] = tested on: mushroom tyrosinase; assay: In vitro tyrosinase inhibition assay (dopachrome, absorbance at 475 nm); type: biochemical; details: octapeptide 0.05 mg/mL
Protocol: To understand how the octapeptide modulates melanogenic enzymes, the activity of tyrosinase in the presence of the peptide was measured by the colorimetric assay. We used the time-dependent assay to confirm that the inhibition reaction occurred with dopachrome accumulation (absorbance at 475 nm). The time-dependent tyrosinase inhibition and the inhibition percentage of the octapeptide at a 50 ug/mL concentration are shown in Figure 2. The inhibitory effect of the octapeptide was determined against mushroom tyrosinase. The mixture of 10 µL of tyrosinase (20 enzyme unit/mL) in 50 mM phosphate buffer, pH 6.8, was added to 96-well plates containing 10 µL of the octapeptide (final concentration = 0.05 mg/mL), then 180 µL of 1 mM L-DOPA was added to start the reaction. […] Monitoring the inhibitory activity by measuring the absorbance at 475 nm for 60 min in a kinetic manner (reading every 1 min) using a microplate reader (Synergy H1, Biotek Inc., Winooski, VT, USA). The tyrosinase inhibitory activity was expressed as a percentage of inhibition at the end-point reaction (t = 60 min) by the equation. […] where Abssample is the absorbance of the reaction with the octapeptide and Absblank denotes the absorbance of the reaction without the testing sample (a buffer in each assay was added instead of the testing sample).

[5] = tested on: Ras-related protein Rab-7L1; Rab29; assay: Targeted proteomics in melanoma cells: Rab29; type: cell-based, Mus musculus; details: melanoma cells treated with octapeptide 50 μg/mL, 48 h, vs control; LC-MS/MS proteomics
Protocol: as §1, §2, §3

- tyrosinase inhibitory effect at end point (60 min) ([4]; 1 mM L-DOPA, 50 mM phosphate buffer pH 6.8, 37 °C, t = 60 min, mean ± SD, n = 3): 13.48 ± 2.12%
- tyrosinase inhibitory effect during the first 30 min of the reaction ([4]; time-dependent assay, rate similar to control): not observed
Sequence: PVRSSNCA [octapeptide, Proline-Valine-Arginine-Serine-Serine-Asparaine-Cysteine-Alanine]
- FRAP reductant ability, FeSO4 molar equivalents [1]: 2.21 ± 0.23 mM equivalent to FeSO4
- Relative Expression (Fold) of Tyrp1 [2]: 0.5034 Fold
- Relative Expression (Fold) of Dct [3]: 2.0460 Fold
- Relative Expression (Fold) of Rab29 [5]: 2.0646 Fold

Reference: paper PMC9230030, “Discovery of a Multifunctional Octapeptide from Lingzhi with Antioxidant and Tyrosinase Inhibitory Activity” (Pharmaceuticals, 2022)
